# Test results: ChEMBL document CHEMBL3600365, “Structural and computational study on inhibitory compounds for endonuclease activity of influenza virus polymerase” (Bioorg Med Chem, 2015)
# Activity calls are given as the source filed them. The calls are words filed in the database; no cut-off is given here.
# Columns and labels:
# [1] = biological target: Polymerase acidic protein (Influenza A virus (A/Puerto Rico/8/1934(H1N1))) (UniProt P03433); assay: Inhibition of Influenza A/Perto Rico/8/34 (PR8) (H1N1) PAN (1 to 197) endonuclease activity expressed in Escherichia coli Rosetta (DE3) using M13mp18 as substrate at 100 uM after 60 mins by agarose gel elctrophoresis
# [2] = biological target: Polymerase acidic protein (Influenza A virus (A/Puerto Rico/8/1934(H1N1)), UniProt P03433); assay: Inhibition of Influenza A/Perto Rico/8/34 (PR8) (H1N1) PA N-terminal domain (1 to 197) endonuclease activity expressed in Escherichia coli Rosetta (DE3) using (6-FAM)-AAT CGC AGG CAG CAC TC-(BHQ-1) as substrate measured every 50 secs for 30 mins by FRET assay
# [3] = system: unidentified influenza virus; assay: Antiviral activity against Influenza virus infected in MDCK cells assessed as viral RNA content incubated with cells for 30 mins prior to addition of 30 mins preincubated virus-compound mixture for 1 hr followed by 3 times compound washout and again cultured in compound containing virus growth medium for 24 hrs by RT-PCR analysis; type: functional, organism-based
# [4] = Cytotoxicity against MDCK cells after 24 hrs by CellTiter 96 AQueous one solution cell proliferation assay; type: cell-based, Canis lupus familiaris; settings: dog
# [5] = biological target: Polymerase acidic protein (Influenza A virus (A/Puerto Rico/8/1934(H1N1)), UniProt P03433); assay: Inhibition of Influenza A/Puerto Rico/8/34 (H1N1) PA N-terminal domain endonuclease activity expressed in Escherichia coli BL21 (RIL) cells using (6-FAM)TGGCAATATCAGCTCCACA(MGBNFQ) as substrate by fluorescence assay
# [6] = system: Influenza A virus; assay: Antiviral activity against Influenza A virus (A/Puerto Rico/8/1934(H1N1)) infected in MDCK cells after 24 hrs by immunofocus assay; type: functional, organism-based
# [7] = system: Influenza A virus; assay: Antiviral activity against Influenza A virus (A/PR8/34(H1N1)) infected in MDCK cells assessed as inhibition of viral replication after 24 hrs; type: functional, organism-based; settings: A/Puerto Rico/8/1934(H1N1)
SMILES,inhibition [1],IC50 [2] [µM],EC50 [3] [µM],CC50 at 24 h [4] [µM],IC50 [5] [µM],EC50 [6] [µM],IC50 [7] [µM]
Oc1ccc(/C=N/Nc2ccc(Cl)cc2)c(O)c1O,Active,8.3,14.4,> 200,,,
O=Cc1cc(Cc2ccccc2Cl)cc([N+](=O)[O-])c1O,Active,63,11.5,74.1,,,
O=C(COc1ccc(F)cc1)c1ccc(O)c(O)c1O,Active,9.7,11.8,> 200,,,
O=c1[nH]c(-c2ccc(F)cc2)c(-c2ccc(-c3nnn[nH]3)cc2)cc1O,,,,,0.011,11,
O=C(O)/C(O)=C/C(=O)C1(Cc2ccc(Cl)cc2)CCN(Cc2ccccc2)CC1,,,,,,,0.35
